In patent publication US8846695B2, “Treatment for diabetes in patients with inadequate glycemic control despite metformin therapy comprising a DPP-IV inhibitor” (Boehringer Ingelheim International GmbH, priority 2009, dated 2014):

What was measured:
[1] = 12-week randomized double-blind add-on to metformin study: HbA1c and FPG; set-up: placebo corrected mean reduction in HbA1c: dose or concentration left out as unconfirmed
Description: Effects were compared to add-on of placebo (PBO) or of open label glimepiride (GLIM; 1 to 3 mg qd) in a 12-week randomized, double-blind study.
The primary endpoint was change from baseline in HbA1c, adjusted for prior antidiabetic medication.

[2] = human, in vivo
[3] = Thorough QT study, single dose, healthy female and male subjects (QTcI); assay type: in vivo, human; details: therapeutic (5 mg) and supratherapeutic (100 mg)
Description: A thorough QT study of BI 1356, a potent and selective dipeptidyl peptidase-4 inhibitor, was performed in healthy female and male subjects, using 5 mg (therapeutic dose) and 100 mg. The study was a randomised, single-dose, placebo-controlled, double-blind, four-way crossover study with open-label moxifloxacin (400 mg) as positive control. Triplicate 12-lead electrocardiograms (ECGs) of 10 seconds' duration were recorded for all subjects pre-dose and at various time points over a 24-h period after each treatment. The primary parameter was the subject-specific heart rate corrected QT interval (QTcI).

[4] = Adverse events and hypoglycaemia in the 12-week add-on to metformin study; assay type: in vivo, human; details: 1, 5 or 10 mg qd with metformin, 12 weeks
From the text: In total, 106 patients (43.1%) experienced adverse events (AEs) with similar incidences across all treatments. Most frequently reported episodes were nasopharyngitis (7.5%), diarrhoea (3.3%), and nausea (3.0%). […] Ten patients (3.7%) experienced serious AEs but none of these events were considered drug-related.
The addition of BI 1356 to MET in patients with T2DM inadequately controlled on MET alone achieved clinically relevant and statistically significant reductions in HbA1c.

[5] = 5 mg daily, 12 weeks, add-on to metformin

## CCC1=C(C)CN(C(=O)NCCc2ccc(S(=O)(=O)NC(=O)N[C@H]3CC[C@H](C)CC3)cc2)C1=O [GLIM, glimepiride, reference compound]
[1]; Week 12, add-on to metformin, n=64
  placebo corrected mean reduction in HbA1c: −0.90%

## CC#CCn1c(N2CCC[C@@H](N)C2)nc2c1c(=O)n(Cc1nc(C)c3ccccc3n1)c(=O)n2C [BI 1356]
[2]
  form and path of excretion: primarily excreted unchanged via the bile
[1]; [5]
  percentage of patients achieving HbA1c lowering of ≧0.5% from baseline: 53.2%
  percentage of patients achieving HbA1c lowering of ≧1.0% from baseline: 27.4%
  percentage of patients achieving a HbA1c value: 14.5%
[1]; 1, 5 and 10 mg once daily added to metformin, plateau thereafter
  time at which maximum glucose-lowering effects are reached: 8 weeks
[3]
  prolongation of the QT interval: did not prolong the QT interval
[4]
  drug-related hypoglycaemia: no case of hypoglycaemia was reported
